Test results from PubChem BioAssay AID2060504 (Molecular Pharmacology Branch, DTP, NCI, 2025).

System: 636577-100-R-J1-PDC complex spheroid viability
Test: Anticancer human tumor 636577-100-R-J1-PDC patient-derived endometrial adenocarcinoma cell line growth inhibition [GQUAD]
Details: for IC50: curve of first compound; for viability, T/C: stronger effect = lower value
In short: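 Tumor cells were grown as complex spheroids with HUVEC endothelial cells and mesenchymal stem cells as stroma. G-quadruplex stabilizers were combined with targeted agents over half-log dilutions from near the clinical Cmax, or from 10 microM.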

[1] = second compound 0.0316 µM, first compound 0.0316 µM
[2] = second compound 0.0316 µM, first compound 0.1 µM
[3] = second compound 0.0316 µM, first compound 0.316 µM
[4] = second compound 0.0316 µM, first compound 1 µM
[5] = second compound 0.0316 µM, first compound 3.16 µM
[6] = second compound 0.0316 µM, first compound 10 µM
[7] = second compound 0.1 µM, first compound 0.0316 µM
[8] = second compound 0.1 µM, first compound 0.1 µM
[9] = second compound 0.1 µM, first compound 0.316 µM
[10] = second compound 0.1 µM, first compound 1 µM
[11] = second compound 0.1 µM, first compound 3.16 µM
[12] = second compound 0.1 µM, first compound 10 µM
[13] = second compound 0.316 µM, first compound 0.0316 µM
[14] = second compound 0.316 µM, first compound 0.1 µM
[15] = second compound 0.316 µM, first compound 0.316 µM
[16] = second compound 0.316 µM, first compound 1 µM
[17] = second compound 0.316 µM, first compound 3.16 µM
[18] = second compound 0.316 µM, first compound 10 µM
[19] = second compound 1 µM, first compound 0.0316 µM
[20] = second compound 1 µM, first compound 0.1 µM
[21] = second compound 1 µM, first compound 0.316 µM
[22] = second compound 1 µM, first compound 1 µM
[23] = second compound 1 µM, first compound 3.16 µM
[24] = second compound 1 µM, first compound 10 µM
[25] = second compound 3.16 µM, first compound 0.0316 µM
[26] = second compound 3.16 µM, first compound 0.1 µM
[27] = second compound 3.16 µM, first compound 0.316 µM
[28] = second compound 3.16 µM, first compound 1 µM
[29] = second compound 3.16 µM, first compound 3.16 µM
[30] = second compound 3.16 µM, first compound 10 µM
[31] = second compound 10 µM, first compound 0.0316 µM
[32] = second compound 10 µM, first compound 0.1 µM
[33] = second compound 10 µM, first compound 0.316 µM
[34] = second compound 10 µM, first compound 1 µM
[35] = second compound 10 µM, first compound 3.16 µM
[36] = second compound 10 µM, first compound 10 µM
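Note: viability read after seven days of drug exposure.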
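Throughout, for viability, T/C: luminescence signal used as a proxy for viable cells; 100% = DMSO vehicle control wells.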

C#Cc1c(F)ccc2cc(O)cc(-c3ncc4c(N5CC6CCC(C5)N6)nc(OCC56CCCN5CC(F)C6)nc4c3F)c12 (stereo unspecified) + Cc1[nH]c2ccc(F)cc2c1-c1nc2c3cccnc3c3ncccc3c2[nH]1
IC50 (second compound 0.0316 µM): 6400 nM
IC50 (second compound 0.1 µM): 4770 nM
IC50 (second compound 0.316 µM): 4540 nM
IC50 (second compound 1 µM): 1750 nM
IC50 (second compound 3.16 µM): < 31.6 nM
IC50 (second compound 10 µM): < 31.6 nM
viability, T/C [1]: 88.5%
viability, T/C [2]: 99.4%
viability, T/C [3]: 87.9%
viability, T/C [4]: 78.7%
viability, T/C [5]: 66.7%
viability, T/C [6]: 39.9%
viability, T/C [7]: 108%
viability, T/C [8]: 93.7%
viability, T/C [9]: 80.7%
viability, T/C [10]: 59.5%
viability, T/C [11]: 59.8%
viability, T/C [12]: 41.2%
viability, T/C [13]: 74.3%
viability, T/C [14]: 61%
viability, T/C [15]: 72.8%
viability, T/C [16]: 78.6%
viability, T/C [17]: 56.1%
viability, T/C [18]: 36.7%
viability, T/C [19]: 53%
viability, T/C [20]: 78.2%
viability, T/C [21]: 80.5%
viability, T/C [22]: 51.8%
viability, T/C [23]: 44.2%
viability, T/C [24]: 28.1%
viability, T/C [25]: 24.1%
viability, T/C [26]: 23.5%
viability, T/C [27]: 23.5%
viability, T/C [28]: 22.6%
viability, T/C [29]: 19.3%
viability, T/C [30]: 12.7%
viability, T/C [31]: 31%
viability, T/C [32]: 39.9%
viability, T/C [33]: 38.8%
viability, T/C [34]: 28.5%
viability, T/C [35]: 24.9%
viability, T/C [36]: 15.8%

CC(=O)O[C@H]1C(=O)[C@@]2(C)[C@H]([C@H](OC(=O)c3ccccc3)[C@]3(O)C[C@H](OC(=O)[C@H](O)[C@@H](NC(=O)c4ccccc4)c4ccccc4)C(C)=C1C3(C)C)[C@]1(OC(C)=O)CO[C@@H]1C[C@@H]2O + Cc1[nH]c2ccc(F)cc2c1-c1nc2c3cccnc3c3ncccc3c2[nH]1
IC50 (second compound 0.0316 µM): < 31.6 nM
IC50 (second compound 0.1 µM): < 31.6 nM
IC50 (second compound 0.316 µM): < 31.6 nM
IC50 (second compound 1 µM): < 31.6 nM
IC50 (second compound 3.16 µM): < 31.6 nM
IC50 (second compound 10 µM): < 31.6 nM
viability, T/C [1]: 16.9%
viability, T/C [2]: 14.4%
viability, T/C [3]: 13.5%
viability, T/C [4]: 12%
viability, T/C [5]: 11.2%
viability, T/C [6]: 11.2%
viability, T/C [7]: 15.5%
viability, T/C [8]: 13.5%
viability, T/C [9]: 10.8%
viability, T/C [10]: 9.49%
viability, T/C [11]: 11.1%
viability, T/C [12]: 9.8%
viability, T/C [13]: 17.3%
viability, T/C [14]: 13.2%
viability, T/C [15]: 11.6%
viability, T/C [16]: 10.4%
viability, T/C [17]: 9.79%
viability, T/C [18]: 11.4%
viability, T/C [19]: 16.5%
viability, T/C [20]: 12%
viability, T/C [21]: 12%
viability, T/C [22]: 12.1%
viability, T/C [23]: 10.9%
viability, T/C [24]: 11%
viability, T/C [25]: 15.3%
viability, T/C [26]: 11.7%
viability, T/C [27]: 13.8%
viability, T/C [28]: 12.5%
viability, T/C [29]: 10.7%
viability, T/C [30]: 8.71%
viability, T/C [31]: 15.6%
viability, T/C [32]: 13.5%
viability, T/C [33]: 10.5%
viability, T/C [34]: 11.4%
viability, T/C [35]: 12.7%
viability, T/C [36]: 12.6%

COc1cc(C2c3cc4c(cc3C(OC3OC5COC(C)OC5C(O)C3O)C3COC(=O)C23)OCO4)cc(OC)c1O (stereo unspecified) + Cc1[nH]c2ccc(F)cc2c1-c1nc2c3cccnc3c3ncccc3c2[nH]1
IC50 (second compound 0.0316 µM): 86.7 nM
IC50 (second compound 0.1 µM): 68.8 nM
IC50 (second compound 0.316 µM): 85.8 nM
IC50 (second compound 1 µM): 58.8 nM
IC50 (second compound 3.16 µM): < 31.6 nM
IC50 (second compound 10 µM): 36.8 nM
viability, T/C [1]: 80.6%
viability, T/C [2]: 45.6%
viability, T/C [3]: 24.1%
viability, T/C [4]: 16.1%
viability, T/C [5]: 16%
viability, T/C [6]: 14%
viability, T/C [7]: 68.4%
viability, T/C [8]: 41.2%
viability, T/C [9]: 23.4%
viability, T/C [10]: 17.1%
viability, T/C [11]: 17.5%
viability, T/C [12]: 13.9%
viability, T/C [13]: 71.5%
viability, T/C [14]: 46.7%
viability, T/C [15]: 21.1%
viability, T/C [16]: 16.8%
viability, T/C [17]: 16.8%
viability, T/C [18]: 14.2%
viability, T/C [19]: 65.3%
viability, T/C [20]: 37.2%
viability, T/C [21]: 21.4%
viability, T/C [22]: 19.9%
viability, T/C [23]: 18%
viability, T/C [24]: 13.8%
viability, T/C [25]: 30%
viability, T/C [26]: 23.9%
viability, T/C [27]: 21%
viability, T/C [28]: 18.5%
viability, T/C [29]: 17.8%
viability, T/C [30]: 14.1%
viability, T/C [31]: 52.5%
viability, T/C [32]: 34.6%
viability, T/C [33]: 21.9%
viability, T/C [34]: 19.1%
viability, T/C [35]: 18.3%
viability, T/C [36]: 15.1%
